According to patent publication US7018615B2, “Method of identifying molecules that home to a selected organ in vivo” (The Burnham Institute, priority 1995, dated 2006):
Bridge positions count the residues as written; N and C are the ends. Ends that are not written are not given here.

Key:
kidney = assay: Homing of individual phage to kidney compared with brain; format: in vivo, mice; details: phage expressing the peptide
Protocol: The same methodology used to isolate phage expressing brain homing peptides was used to isolate phage expressing peptides that home to kidney. In these experiments, brain was used as the control organ. A mixture of the CX5C (SEQ ID NO: 36) and the CX6C (SEQ ID NO: 37) libraries was administered as described above. Homing of phage to the kidney was obtained and an approximately 3× to 7× enrichment of phage homing to kidney was observed following a second round of in vivo panning.
The amino acid sequences were determined for the inserts in 48 cloned phage that homed to kidney. The peptides expressed by these phage were represented by two predominant sequences, CLPVASC (SEQ ID NO: 21; 46% of the clones sequenced) and CGAREMC (SEQ ID NO: 22; 17% of the clones; see Table 2). In addition, the peptide CKGRSSAC (SEQ ID NO: 23) appeared three times and three other peptides were present twice each.

brain [1] = assay: Homing of individually amplified phage to brain compared with kidney (TU recovered); format: in vivo, mice; details: phage displaying the peptide, same input titer, TU recovered from each organ
Protocol: To determine the specificity of brain homing of the individual motifs identified, phage displaying the predominant motifs were amplified individually, diluted to the same input titer and administered to mice. Following administration, brain and kidney were removed and the number of TU of phage in each organ was determined. […] Specifically, the ratio of selective homing (brain:kidney) was about 8 for CNSRLHLRC (SEQ ID NO: 1) and for CLSSRLDAC (SEQ ID NO: 3), 4 for CENWWGDVC (SEQ ID NO: 2) and 9 for […] (SEQ ID NO: 16).

brain [2] = assay: Homing of 125I-peptide/RBC complex to brain and kidney, alone or with unlabeled peptide; format: in vivo, mouse; details: for effect of coadministered unlabeled peptide on brain homing of the CLSSRLDAC/RBC complex / effect of coadministered unlabeled peptide on localization of the CLSSRLDAC/RBC complex in the kidney: 10 mM unlabeled peptide coadministered
Protocol: The synthetic cyclic CLSSRLDAC (SEQ ID NO: 3) peptide (1 mg) was labeled with iodine-125 using the Bolton and Hunter reagent (Amersham; Arlington Heights Ill.). Labeled peptide was purified by reverse phase HPLC on Sep-Pak™ cartridges (Waters, Millipore Corp.; Milford Pa.) and the ^125I-peptide (200 μg) was coupled to 1 ml glutaraldehyde-stabilized sheep RBC (Sigma Chemical Co.; St. Louis Mo.) according to the manufacturer's instructions.
After 2 min, each mouse was perfused through the heart with 50 ml DMEM and the brain and kidney were removed and assayed for radioactivity.
Approximately twice as much of the CLSSRLDAC/RBC complex (SEQ ID NO: 3) homed to brain than to kidney. […] Coadministration of unlabeled CVRLNSLAC (SEQ ID NO: 43) had no effect on selective homing of the complex to brain and no effect on the non-specific localization of the complex in the kidney.

brain [3] = assay: Peptide competition: synthetic cyclic peptide co-injected with brain homing phage; format: in vivo, mice; details: 100 μg synthetic cyclic peptide co-injected with 1×10^8 TU phage
Protocol: In order to confirm the specificity of a peptide for directing homing to a selected organ, peptide competition experiments were performed. The cyclic peptide, CLSSRLDAC (SEQ ID NO: 3), which is one of the brain homing peptides (see Table 1) was synthesized (Immunodynamics; La Jolla Calif.) and purified by HPLC. The effect on the homing of phage expressing CLSSRLDAC (SEQ ID NO: 3), CENWWGDVC (SEQ ID NO: 2) or […] (SEQ ID NO: 16) to the brain was examined in order to determine whether co-administration of the synthetic peptide affected homing of the phage.
Phage expressing CLSSRLDAC (SEQ ID NO: 3), CENWWGDVC (SEQ ID NO: 2) or […] (SEQ ID NO: 16) were titrated to the same concentration and 1×10^8 TU was injected into mice alone, or with 100 μg purified synthetic cyclic CLSSRLDAC (SEQ ID NO: 3) peptide. The synthetic CLSSRLDAC (SEQ ID NO: 3) peptide inhibited the homing of phage expressing CLSSRLDAC (SEQ ID NO: 3) by about 60%.

## CLPVASC (displayed on phage)
kidney
  ratio of selective kidney:brain homing: 7

## CGAREMC (displayed on phage)
kidney
  ratio of selective kidney:brain homing: 3

## WRCVLREGPAGGCAWFNRHRL (displayed on phage)
Brain [1]
  ratio of selective homing (brain:kidney): ~9

## CNSRLHLRC (displayed on phage)
Brain [1]
  ratio of selective homing (brain:kidney): about 8

## CKGRSSAC (displayed on phage)
kidney
  ratio of selective kidney:brain homing: 2

## CENWWGDVC (displayed on phage)
Brain [1]
  ratio of selective homing (brain:kidney): ~4

## CVRLNSLAC
Brain [2]
  effect of coadministered unlabeled peptide on brain homing of the CLSSRLDAC/RBC complex: had no effect
  effect of coadministered unlabeled peptide on localization of the CLSSRLDAC/RBC complex in the kidney: no effect
Brain [2]; stated for the control peptide
  brain homing activity: no brain homing activity

## CLSSRLDAC (disulfide 1-9 (inferred)) [also synthesized as cyclic peptide]
Brain [1]
  ratio of selective homing (brain:kidney): about 8
Brain [3]
  effect on homing to brain of CENWWGDVC phage: did not affect
  inhibition of homing to brain of phage expressing CLSSRLDAC: about 60%
Brain [2]
  effect of coadministered unlabeled peptide on brain homing of the CLSSRLDAC/RBC complex: essentially completely inhibited
  effect of coadministered unlabeled peptide on localization of the CLSSRLDAC/RBC complex in the kidney: had no effect
